# Assay results published in patent US20180074053A1 (priority 2016, published 2018).
# “Also recorded” adds a separate entry of the source. Like-named read-outs stand apart in the source and are kept apart here.
# Assays:
# C57BL/6J mice = experiment: Oral glucose tolerance test (OGTT); type: in vivo, mouse; conditions: for significance of blood glucose lowering in OGTT / blood glucose in response to a glucose load (OGTT): Example 5, FIG. 9; for blood glucose in response to a glucose load (OGTT): 1, 0.5 and 0.1 mg/g body weight; for overall effect on blood glucose in OGTT vs vehicle: Example 9, FIG. 14, DT-110 1 mg/g, alamandine 10 mg/g, metformin 0.2 mg/g; for overall effect on blood glucose in OGTT: Example 8, FIG. 13, GABA 200 mg/kg, DT-109 1 mg/g, p<0.01 2-way ANOVA
# Experimental: (§1) C57BL/6J mice were received from Jackson Laboratories at 4 weeks old and aged to 7 weeks and then grouped by body weight into 4 groups of 10. The mice were fasted overnight (12 hours) prior to the assay. Body weights and blood glucose (FreeStyle Lite glucometer) levels were determined. […] At 30, 60, 90, and 120 minutes glucose levels were measured using whole blood collected from the tip of the tail via needle puncture. Upon the final 120 min measurement, food was returned to the mice.
# Oral glucose tolerance tests (OGTTs) were performed as described in Example 1.
# as §1, with “puncture.” for “puncture. Upon the final 120 min measurement, food was returned to the mice.”
# as §1, with “puncture.” for “puncture. Upon the final 120 min measurement, food was returned to the mice.”
# MRGD [1] = molecular target: T1, MRGD (Homo sapiens, UniProt Q8TDS7); experiment: Calcium mobilization in MRGD over-expressing cells; type: cell-based; design: host or cells: ChemiScreen over-expressing cell line, given as 'HEK 293T cells (Chem-1, EMD Millipore)'; conditions: for activation of calcium mobilization: Example 6, FIG. 10, entire dose range
# T1 sequence (Q8TDS7 whole entry): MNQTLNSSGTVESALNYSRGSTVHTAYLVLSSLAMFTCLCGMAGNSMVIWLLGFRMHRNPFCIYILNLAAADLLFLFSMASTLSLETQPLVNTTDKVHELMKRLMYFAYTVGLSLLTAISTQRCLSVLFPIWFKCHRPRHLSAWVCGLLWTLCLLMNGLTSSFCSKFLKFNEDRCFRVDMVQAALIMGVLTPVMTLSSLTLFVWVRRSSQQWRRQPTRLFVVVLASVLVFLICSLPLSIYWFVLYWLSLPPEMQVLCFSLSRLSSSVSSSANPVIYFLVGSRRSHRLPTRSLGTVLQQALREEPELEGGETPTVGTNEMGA
# Experimental: (§2) Cells were grown in DMEM medium containing 10% FBS, 1× non-essential amino acids (Gibco #111450-040), 20 mM HEPES and 250 μg/mL Geneticin® (Gibco #10131-035). Cells were harvested with 0.25% Trypsin/EDTA (Gibco #25200-056), pelleted at 1,200×g for 6 minutes and resuspended in DMEM media described above minus Geneticin®. The cells were seeded at 4×10^4 cells/well/100 μL of a clear bottom/black 96-well plate and grown overnight. The calcium mobilization assays was performed using Screen Quest Fluo-8 Medium Removal Calcium Assay Kit (AAT Bioquest #36308) according to the manufacturer's protocol. Briefly, cells were washed with 100 μL volume of Hank's balanced salt solution, 20 mM HEPES, pH 7.4 and loaded with a buffer containing HBSS, 20 mM HEPES, 1× Pluronic F127 and the Fluo-8 NW dye. The cells were incubated for 30 minutes at 37° C. followed by a 30 minute room temperature incubation. Drug stocks were prepared at 100× concentration and diluted 1:33 in HBSS, 20 mM HEPES, pH 7.4 in a 96-well plate (Corning #3641). Calcium mobilization was measured using the FlexStation 3 (Molecular Devices) at excitation wavelength of 490 nm and emission wavelength of 525 nm. Fluorescence was measured for 180 seconds at 5 second intervals with the addition of compound at a 1:3 dilution after 15 seconds. Peak fluorescence values were calculated using SoftMax Pro 5 (Molecular Devices). The fluorescence values obtained from control wells without cells are subtracted from wells containing treated cells to correct for background. The ratio of fluorescence values of treated cells to vehicle control wells was used to calculate fold activity of the compounds.
# MRGD cells (EMD Millipore, MA) were treated with either β-alanine, or alamandine at various concentrations (FIG. 10) and calcium mobilization was monitored using a FlexStation 3 Microplate Reader (Molecular Devices) as described in Example 4.
# eNOS = eNOS mRNA expression in HUVEC; type: cell-based, human; conditions: FIG. 15
# From the text: It has been shown that activation of MRGD by alamandine plays an important role in vasodilation by increasing nitric oxide (NO) production. NO produced by the endothelium is an important protective molecule in the vasculature and is mainly generated by the enzyme endothelial NO synthase (eNOS) in blood vessels. Enhancing the expression of eNOS has been considered as possible therapeutic strategy for reducing cardiovascular risk.
# MRGD [2] = molecular target: T1, MRGD; experiment: Calcium mobilization in MRGD cells, antagonist mode; type: cell-based; design: host or cells: ChemiScreen over-expressing cell line, given as 'HEK 293T cells (Chem-1, EMD Millipore)'; conditions: 15 min pre-incubation 30 nM-3 μM, FIG. 11
# Experimental: A similar assay was run in the antagonist mode where cells were first incubated with 0, 30 nM, 300 nM or 3 μM alamandine as shown in FIG. 11 (x-axis) for 15 minutes. Then one of 3 different agonists was added to the wells, at their EC90 and the calcium mobilization recorded.
# STC-1 cells [3] = experiment: GLP-1 secretion from STC-1 cells (ELISA); type: cell-based, mouse; conditions: STC-1 cells, co-treatment with DT-110, 2 hours; FIG. 3
# Experimental: The pathways and sites of action of H89 and U73122 are graphically represented in FIG. 2.
# Supernatants were collected for GLP-1 measurement. and the GLP-1 concentration was measured using a total GLP-1 (7-36 and 9-36) ELISA kit according to manufacturer's instruction (Alpco. Salem, N.H.).
# GPCR109a = GPCR109a (Homo sapiens, UniProt Q8TDS4); conditions: doses of 5 mM and below; FIG. 6A
# Chain of GPCR109a (Q8TDS4 whole entry): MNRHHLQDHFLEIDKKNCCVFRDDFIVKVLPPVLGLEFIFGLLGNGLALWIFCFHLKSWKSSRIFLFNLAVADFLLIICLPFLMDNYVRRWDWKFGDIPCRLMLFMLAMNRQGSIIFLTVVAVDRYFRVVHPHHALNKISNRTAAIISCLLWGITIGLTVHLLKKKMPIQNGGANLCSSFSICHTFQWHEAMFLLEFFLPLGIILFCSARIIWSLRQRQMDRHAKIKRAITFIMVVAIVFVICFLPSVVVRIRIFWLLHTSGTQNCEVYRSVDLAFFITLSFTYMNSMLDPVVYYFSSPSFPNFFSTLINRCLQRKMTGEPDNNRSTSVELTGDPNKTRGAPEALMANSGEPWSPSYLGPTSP
# Experimental: as §2
# (§3) The specificity of the agonist activity was determined by testing in the cell lines that over-express GPCR40 and GPCR 109a.
# GPCR40 = GPCR40 (Homo sapiens, UniProt O14842); conditions: doses of 5 mM and below; FIG. 7A
# Chain of GPCR40 (O14842 whole entry): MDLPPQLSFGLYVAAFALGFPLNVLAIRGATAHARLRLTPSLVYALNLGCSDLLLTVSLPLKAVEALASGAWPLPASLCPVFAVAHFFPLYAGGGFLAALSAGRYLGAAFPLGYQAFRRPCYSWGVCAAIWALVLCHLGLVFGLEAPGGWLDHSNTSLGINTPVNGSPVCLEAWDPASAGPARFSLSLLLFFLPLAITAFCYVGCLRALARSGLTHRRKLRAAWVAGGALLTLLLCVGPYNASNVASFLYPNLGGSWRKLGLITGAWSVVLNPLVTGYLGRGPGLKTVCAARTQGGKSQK
# Experimental: as §2, §3
# MrgprD^−/− (KO) mice = conditions: P<0.05 KO vs. WT
# Experimental: (§4) The mice were fasted overnight and their fasting glucose levels were measured. […] Blood glucose levels were measured at 30, 60, 90 and 120 minutes after glucose loading.
# as §4
# STC-1 cells [4] = conditions: has been shown; cited from earlier work
# [5] = test system: C57/BL/6J mice and diabetic mouse models; conditions: previous studies (Zhang 2013; U.S. Pat. No. 8,664,177); cited from earlier work
# diabetic mice = conditions: has been shown; cited from earlier work
# [6] = molecular target: MAS-related G-protein-coupled receptor member D (MRGD) (human, UniProt Q8TDS7 1-321); experiment: cell-based or functional assay
# Chain of MAS-related G-protein-coupled receptor member D (MRGD) (Q8TDS7 whole entry): as the sequence (Q8TDS7 whole entry) above
molecule,measurement,setting,value
"NCCC(=O)O [β-alanine, reference compound]",significance of blood glucose lowering in OGTT,C57BL/6J mice; 0.1 mg/g,did not
same,significance of blood glucose lowering in OGTT,C57BL/6J mice; 0.5 mg/g,showed significance
same,significance of blood glucose lowering in OGTT,C57BL/6J mice; 1 mg/g,showed significance
same,blood glucose in response to a glucose load (OGTT),C57BL/6J mice,"lower blood glucose in response to a glucose load, in a dose-dependent manner"
same,EC50,"MRGD [1]; Example 4, FIG. 8, DT-110 lot 2, read-out: EC50",7.5 µM
same,activation of calcium mobilization,MRGD [1],stimulated calcium mobilization
same,potency relative to DT-110 or DT-109,MRGD [1]; FIG. 8,more than 10 fold
alamandine,overall effect on blood glucose in OGTT vs vehicle,C57BL/6J mice,weak but overall significant effect
same,eNOS mRNA levels,"eNOS; 30 minutes, vs control",the same
same,eNOS expression,eNOS; 60 minutes,increased eNOS expression
same,eNOS expression,eNOS; 120 minutes,returned to control levels
same,activation of calcium mobilization,MRGD [1],no activation of calcium mobilization; also recorded: did not
same,effect on DT-109 signaling,MRGD [2]; DT-109 at EC90,did not have any significant effect
same,effect on DT-110 signaling,MRGD [2]; DT-110 at EC90,did not have any significant effect
same,effect on β-alanine signaling,"MRGD [2]; β-alanine at EC90, P<0.05",significantly decreased β-alanine signaling
O=S(=O)(NCCNC/C=C/c1ccc(Br)cc1)c1cccc2cnccc12 [H89],inhibition of DT-110 stimulated GLP-1 secretion,STC-1 cells [3],inhibit DT-110 stimulated GLP-1 secretion; also recorded: partially inhibited
"CN(C)C(=N)N=C(N)N [metformin, reference compound]",overall effect on blood glucose in OGTT vs vehicle,C57BL/6J mice,significant effect on blood glucose
same,effect on blood glucose compared with alamandine,"C57BL/6J mice; Example 9, P<0.001",significantly better than alamandine
CC(C)C[C@H](NC(=O)CNC(=O)CN)C(=O)O,blood glucose levels during OGTT,"C57BL/6J mice; Example 1, FIG. 1A, 2 mg/g glucose plus 1.0, 0.5 or 0.1 mg/g oral gavage, 30-120 min",lowers blood glucose levels in C57BL/6J mice during OGTT in a dose dependent manner
same,blood glucose area under curve (AUC) in OGTT,"C57BL/6J mice; Example 1, FIG. 1B, 1.0, 0.5 or 0.1 mg/g oral, p<0.01 vs control",significantly lowers blood glucose in mice in a dose dependent manner
same,significance of blood glucose lowering in OGTT,C57BL/6J mice; 0.1 mg/g,significant
same,significance of blood glucose lowering in OGTT,C57BL/6J mice; 0.5 mg/g,significant
same,significance of blood glucose lowering in OGTT,C57BL/6J mice; 1 mg/g,significant
same,blood glucose in response to a glucose load (OGTT),C57BL/6J mice,"lower blood glucose in response to a glucose load, in a dose-dependent manner"
same,overall effect on blood glucose in OGTT,C57BL/6J mice,overall significant effect in lowering blood glucose
same,agonist activity (Ca2+ flux),GPCR109a,inactive
same,agonist activity (Ca2+ flux),GPCR40,inactive
same,reduction of blood glucose levels in KO mice compared with WT mice (OGTT),MrgprD^−/− (KO) mice; 0.25 mg/g with 2 mg/g glucose oral,significantly impaired
same,reduction of blood glucose levels in KO mice compared with WT mice (OGTT),MrgprD^−/− (KO) mice; 0.5 mg/g with 2 mg/g glucose oral,significantly impaired
same,GLP-1 secretion,STC-1 cells [4],stimulate GLP-1 secretion
same,blood glucose,[5],lower blood glucose
same,GLP-1 level,diabetic mice,elevate GLP-1 level
same,calcium mobilization activity,"MRGD [1]; at 5 mM, highest dose used, Example 4",active
"NCCCC(=O)O [GABA, gamma amino butyric acid, reference compound]",overall effect on blood glucose in OGTT,C57BL/6J mice,overall significant effect in lowering blood glucose
same,EC50,"MRGD [1]; Example 7, FIG. 12, read-out: half maximal effective concentration (EC50)",~68 µM
COc1ccc2c(c1)CC[C@@H]1[C@@H]2CC[C@]2(C)[C@@H](NCCCCCCN3C(=O)C=CC3=O)CC[C@@H]12 [U73122],inhibition of DT-110 stimulated GLP-1 secretion,STC-1 cells [3],inhibit DT-110 stimulated GLP-1 secretion; also recorded: partially inhibited
"GGL [DT-109, three amino acid peptide glycine-glycine-leucine (GGL)]","EC50, calcium mobilization in MRGD over-expressing cells (FIG. 5)",[6],600 µM
same,"EC50, calcium mobilization in the MRGD cell line (FIG. 8)",[6],178 µM
